The text below walks through data of patent publication EP4631959A2, “NOVEL MINIGASTRIN-DERIVED CHOLECYSTOKININ 2 RECEPTOR BINDING MOLECULES FOR IMAGING AND TARGETED RADIOTHERAPY” (priority 2022, dated 2024).

The target in one data set is T1, CCK-2R (Rattus norvegicus, UniProt P30553).
T1 construct: The CCK-2R expressing rat pancreatic tumor cells AR4-2J; host or cells: AR4-2J rat pancreatic tumor cells
T1 sequence (P30553 1-452): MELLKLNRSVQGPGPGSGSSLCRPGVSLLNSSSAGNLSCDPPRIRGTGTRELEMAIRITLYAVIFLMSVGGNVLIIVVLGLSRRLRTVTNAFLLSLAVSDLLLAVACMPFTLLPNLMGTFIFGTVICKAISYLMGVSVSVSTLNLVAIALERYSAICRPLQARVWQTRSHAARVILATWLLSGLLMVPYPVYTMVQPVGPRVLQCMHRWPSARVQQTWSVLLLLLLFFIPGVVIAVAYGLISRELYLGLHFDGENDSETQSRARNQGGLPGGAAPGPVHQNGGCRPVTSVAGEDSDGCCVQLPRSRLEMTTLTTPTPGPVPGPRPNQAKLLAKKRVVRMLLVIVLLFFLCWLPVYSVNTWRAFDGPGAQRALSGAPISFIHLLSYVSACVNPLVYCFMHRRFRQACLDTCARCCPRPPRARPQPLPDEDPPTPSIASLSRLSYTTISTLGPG
Put plainly: Determination of IC50: CCK-2R affinity on AR4-2J cells, competition with [^177Lu]Lu-DOTA-PP-F11N. The class given is binding. How it is done:
AR4-2J cells were harvested 24 ± 2 h before the experiment and seeded in 24-well plates (2.0 × 10^5 cells in 1 mL/well). After removal of the nutrient medium (RPMI 1640, 5 mM L-Gln, 5 mL non-essential amino acids (100×), 10% FCS), the cells were washed once with 500 µL PBS. Thereafter, 200 µL nutrient medium (5% BSA, v/v) were added. Next, 25 µL per well of solutions containing either nutrient medium (5% BSA, v/v) as control or the respective compound in increasing concentration (10^-10 - 10^-4 M), were added with subsequent addition of 25 µL [^177Lu]Lu-DOTA-PP-F11N (0.3 pmol/well).
All experiments were performed in triplicate for each concentration. After 3 h incubation at 37 °C, the experiment was terminated by removal of the medium and consecutive rinsing with 300 µL PBS. The media of both steps were combined in one fraction and represent the amount of free radiolabeled reference. Afterwards, the cells were lysed with 300 µL of 1 M NaOH for at least 15 min and united with the 300 µL NaOH of the following washing step. Quantification of bound and free radiolabeled reference was accomplished in a γ-counter. IC50 determination for each conjugate was repeated twice.

Data set [1] in a line: n-Octanol-PBS distribution coefficient (logD7.4). The class given is physicochemical. As to conditions: pH = 7.4, ^177Lu-labeled. The procedure:
Approximately 1 MBq of the labeled tracer was dissolved in 1 mL of a 1/1 mixture (v/v) of phosphate buffered saline (PBS, pH = 7.4) and n-octanol in an Eppendorf tube (1.5 mL). After vigorous mixing of the suspension for 3 min at rt, the vial was centrifuged at 9,000 rpm for 5 min (Biofuge 15, Heraeus Sepatech, Osterode, Germany) and 200 µL aliquots of both layers were measured in a γ-counter. The experiment was repeated at least five times.

[2] abbreviates: read-out: IC50 [nM] (n = 3), ^natLu-labeled; AR4-2J cells; ^natLu-labeled.
Setting [3] is: AR4-2J cells; ^natLu-labeled; read-out: IC50 [nM] (n = 3), ^natLu-labeled.

As a reminder, the IC50 is the concentration that gives 50% inhibition.

Molecules are shown by their SMILES. Like-named read-outs stand apart in the source and are kept apart here. Starred links: 1 amine or outer side, 2 acyl side, 3 side chain; linkers in the order of their positions; H or OH if unused. Non-standard residues stand in square brackets, D forms with d. Residues, ends and D or L forms follow the SMILES beside them. *: point of attachment. DOTAGA = O=C(O)CN1CCN(CC(=O)O)CCN(C(CCC(=O)*)C(=O)O)CCN(CC(=O)O)CC1; X2 = O=C(O)CN1CCN(CC(=O)O)CCN([C@H](CCC(=O)*)C(=O)O)CCN(CC(=O)O)CC1; Benzoyl(4-SiFtBu2) = CC(C)(C)[Si](F)(c1ccc(C(=O)*)cc1)C(C)(C)C; DOTA = O=C(O)CN1CCN(CC(=O)O)CCN(CC(=O)*)CCN(CC(=O)O)CC1; d(γGlu) = O=C(O)[C@@H](CCC(=O)[*:2])N[*:1]; 1Nal = N[C@@H](Cc1cccc2ccccc12)C(=O)O; PEG6 = NCCOCCOCCOCCOCCOCCOCCC(=O)O; PEG5 = NCCOCCOCCOCCOCCOCCC(=O)O; NMeNle = CCCC[C@H](NC)C(=O)O; Nle = CCCC[C@H](N)C(=O)O; dDap = NC[C@@H](N)C(=O)O

Turning to `CCCC[C@H](NC(=O)[C@H](Cc1c[nH]c2ccccc12)NC(=O)CNC(=O)[C@H](Cc1ccc(O)cc1)NC(=O)[C@H](C)NC(=O)CC[C@@H](NC(=O)CC[C@@H](NC(=O)CC[C@@H](NC(=O)CC[C@@H](NC(=O)[C@@H](CNC(=O)c1ccc([Si](F)(C(C)(C)C)C(C)(C)C)cc1)NC(=O)CC[C@@H](NC(=O)CC[C@@H](NC(=O)CC[C@@H](NC(=O)CCC(C(=O)O)N1CCN(CC(=O)O)CCN(CC(=O)O)CCN(CC(=O)O)CC1)C(=O)O)C(=O)O)C(=O)O)C(=O)O)C(=O)O)C(=O)O)C(=O)O)C(=O)N[C@@H](CC(=O)O)C(=O)N[C@@H](Cc1ccccc1)C(N)=O` (stereo partly shown) [DOTAGA-MG-SiFA-24, DOTAGA-(γ-glu)2-[dap(SiFA)^2]γ-F11N] ({DOTAGA-d(γGlu)-d(γGlu)-d(γGlu)}-[dDap](Benzoyl(4-SiFtBu2))[d(γGlu)][d(γGlu)][d(γGlu)][d(γGlu)]AYGW[Nle]DF-NH2), the IC50 on CCK-2R (setting [2]) was 66.6 ± 4.4 nM. In addition, the “logD7.4 (n ≥ 5), ^177Lu-labeled” value in data set [1] is listed as −2.72 ± 0.05.
For the compound `CCCC[C@H](NC(=O)[C@H](Cc1c[nH]c2ccccc12)NC(=O)CNC(=O)[C@H](Cc1ccc(O)cc1)NC(=O)[C@H](C)NC(=O)CC[C@@H](NC(=O)[C@@H](CNC(=O)c1ccc([Si](F)(C(C)(C)C)C(C)(C)C)cc1)NC(=O)CC[C@@H](NC(=O)CC[C@@H](NC(=O)CC[C@@H](NC(=O)CC[C@@H](NC(=O)CC[C@@H](NC(=O)CC[C@H](C(=O)O)N1CCN(CC(=O)O)CCN(CC(=O)O)CCN(CC(=O)O)CC1)C(=O)O)C(=O)O)C(=O)O)C(=O)O)C(=O)O)C(=O)O)C(=O)N[C@@H](CC(=O)O)C(=O)N[C@@H](Cc1ccccc1)C(N)=O` [DOTAGA-MG-SiFA-14, DOTAGA-γ-glu-[dap(SiFA)^5]γ-F11N] ({X2-d(γGlu)-d(γGlu)-d(γGlu)-d(γGlu)-d(γGlu)}-[dDap](Benzoyl(4-SiFtBu2))[d(γGlu)]AYGW[Nle]DF-NH2), the IC50 on CCK-2R (setting [3]) is 111 ± 13 nM. Besides, the “logD7.4 (n ≥ 5), ^177Lu-labeled” value in data set [1] was −2.23 ± 0.07.
The like results for `CCCC[C@@H](C(=O)N[C@@H](CC(=O)O)C(=O)N[C@@H](Cc1cccc2ccccc12)C(N)=O)N(C)C(=O)[C@H](Cc1c[nH]c2ccccc12)NC(=O)CCOCCOCCOCCOCCOCCNC(=O)CC[C@@H](NC(=O)CN1CCN(CC(=O)O)CCN(CC(=O)O)CCN(CC(=O)O)CC1)C(=O)O` [DOTA-CCK-78, DOTA-γ-glu-(PEG)4-Trp-(N-Me)Nle-Asp-1-Nal-NH2] ({DOTA-d(γGlu)-PEG5}-W[NMeNle]D[1Nal]-NH2) were, in that order, 6.7 ± 0.8 nM and −2.61 ± 0.06.
In the case of `CCCC[C@H](NC(=O)[C@H](Cc1c[nH]c2ccccc12)NC(=O)CNC(=O)[C@H](Cc1ccc(O)cc1)NC(=O)[C@H](C)NC(=O)CC[C@@H](NC(=O)CC[C@@H](NC(=O)CC[C@@H](NC(=O)CC[C@@H](NC(=O)CC[C@@H](NC(=O)[C@@H](CNC(=O)c1ccc([Si](F)(C(C)(C)C)C(C)(C)C)cc1)NC(=O)CC[C@@H](NC(=O)CCC(C(=O)O)N1CCN(CC(=O)O)CCN(CC(=O)O)CCN(CC(=O)O)CC1)C(=O)O)C(=O)O)C(=O)O)C(=O)O)C(=O)O)C(=O)O)C(=O)N[C@@H](CC(=O)O)C(=O)N[C@@H](Cc1ccccc1)C(N)=O` (stereo partly shown) [DOTAGA-MG-SiFA-18, DOTAGA-γ-glu-[dap(SiFA)^1]γ-F11N] ({DOTAGA-d(γGlu)}-[dDap](Benzoyl(4-SiFtBu2))[d(γGlu)][d(γGlu)][d(γGlu)][d(γGlu)][d(γGlu)]AYGW[Nle]DF-NH2), the IC50 at CCK-2R (setting [2]) is 33 ± 11.1 nM. In addition, the “logD7.4 (n ≥ 5), ^177Lu-labeled” value in data set [1] is reported as −2.50 ± 0.02.
On to `CCCC[C@H](NC(=O)[C@H](Cc1c[nH]c2ccccc12)NC(=O)CNC(=O)[C@H](Cc1ccc(O)cc1)NC(=O)[C@H](C)NC(=O)CC[C@@H](NC(=O)CC[C@@H](NC(=O)CC[C@@H](NC(=O)CC[C@@H](NC(=O)[C@@H](CNC(=O)c1ccc([Si](F)(C(C)(C)C)C(C)(C)C)cc1)NC(=O)CC[C@@H](NC(=O)CC[C@@H](NC(=O)CC[C@@H](NC(=O)CC[C@@H](NC(=O)CCC(C(=O)O)N1CCN(CC(=O)O)CCN(CC(=O)O)CCN(CC(=O)O)CC1)C(=O)O)C(=O)O)C(=O)O)C(=O)O)C(=O)O)C(=O)O)C(=O)O)C(=O)O)C(=O)N[C@@H](CC(=O)O)C(=O)N[C@@H](Cc1ccccc1)C(N)=O` (stereo partly shown) [DOTAGA-MG-SiFA-25, DOTAGA-(γ-glu)3-[dap(SiFA)^2]γ-F11N] ({DOTAGA-d(γGlu)-d(γGlu)-d(γGlu)-d(γGlu)}-[dDap](Benzoyl(4-SiFtBu2))[d(γGlu)][d(γGlu)][d(γGlu)][d(γGlu)]AYGW[Nle]DF-NH2), for which the IC50 at CCK-2R (setting [2]) stood at 62.9 ± 8.1 nM. In data set [1], the “logD7.4 (n ≥ 5), ^177Lu-labeled” value is listed as −2.74 ± 0.04.
Turning to `CCCC[C@@H](C(=O)N[C@@H](CC(=O)O)C(=O)N[C@@H](Cc1cccc2ccccc12)C(N)=O)N(C)C(=O)[C@H](Cc1c[nH]c2ccccc12)NC(=O)CCOCCOCCOCCOCCOCCOCCNC(=O)CC[C@@H](NC(=O)CN1CCN(CC(=O)O)CCN(CC(=O)O)CCN(CC(=O)O)CC1)C(=O)O` [DOTA-CCK-79, DOTA-γ-glu-(PEG)5-Trp-(N-Me)Nle-Asp-1-Nal-NH2] ({DOTA-d(γGlu)-PEG6}-W[NMeNle]D[1Nal]-NH2), the IC50 on CCK-2R (setting [3]) is 7 ± 0.6 nM. For the same compound, in data set [1], the “logD7.4 (n ≥ 5), ^177Lu-labeled” value is on record as −2.59 ± 0.05.
`CCCC[C@H](NC(=O)[C@H](Cc1c[nH]c2ccccc12)NC(=O)CNC(=O)[C@H](Cc1ccc(O)cc1)NC(=O)[C@H](C)NC(=O)[C@@H](CNC(=O)c1ccc([Si](F)(C(C)(C)C)C(C)(C)C)cc1)NC(=O)CC[C@@H](NC(=O)CC[C@@H](NC(=O)CC[C@@H](NC(=O)CC[C@@H](NC(=O)CC[C@@H](NC(=O)CC[C@@H](NC(=O)CC[C@H](C(=O)O)N1CCN(CC(=O)O)CCN(CC(=O)O)CCN(CC(=O)O)CC1)C(=O)O)C(=O)O)C(=O)O)C(=O)O)C(=O)O)C(=O)O)C(=O)N[C@@H](CC(=O)O)C(=O)N[C@@H](Cc1ccccc1)C(N)=O` [DOTAGA-MG-SiFA-13, DOTAGA-γ-glu-[dap(SiFA)^6]γ-F11N] ({X2-d(γGlu)-d(γGlu)-d(γGlu)-d(γGlu)-d(γGlu)-d(γGlu)}-[dDap](Benzoyl(4-SiFtBu2))AYGW[Nle]DF-NH2): on CCK-2R (setting [3]), the IC50 was 863 ± 147 nM. In addition, the “logD7.4 (n ≥ 5), ^177Lu-labeled” value in data set [1] is on record as −2.15 ± 0.08.
In the case of `CCCC[C@H](NC(=O)[C@H](Cc1c[nH]c2ccccc12)NC(=O)CNC(=O)[C@H](Cc1ccc(O)cc1)NC(=O)[C@H](C)NC(=O)[C@@H](CCC(=O)O)NC(=O)[C@@H](CCC(=O)O)NC(=O)[C@@H](CCC(=O)O)NC(=O)[C@@H](CCC(=O)O)NC(=O)[C@@H](CCC(=O)O)NC(=O)[C@@H](CCC(=O)O)NC(=O)[C@@H](CCC(=O)O)NC(=O)[C@@H](CCC(=O)O)NC(=O)[C@@H](CNC(=O)c1ccc([Si](F)(C(C)(C)C)C(C)(C)C)cc1)NC(=O)CCC(C(=O)O)N1CCN(CC(=O)O)CCN(CC(=O)O)CCN(CC(=O)O)CC1)C(=O)N[C@@H](CC(=O)O)C(=O)N[C@@H](Cc1ccccc1)C(N)=O` (stereo partly shown) [DOTAGA-MG-SiFA-21, DOTAGA-dap(SiFA)-(glu)2-F11N] ({DOTAGA}-[dDap](Benzoyl(4-SiFtBu2))[dE][dE][dE][dE][dE][dE][dE][dE]AYGW[Nle]DF-NH2), the IC50 on CCK-2R (setting [2]) stood at 55.3 ± 7.8 nM. Moreover, the “logD7.4 (n ≥ 5), ^177Lu-labeled” value in data set [1] is −2.84 ± 0.04.
